# From the supplement of paper PMC10307832
# Tests used:
# Assay in all cases: relative viability (nuclei count vs DMSO), 5 days (fraction); higher = more cells survive
# Linifanib + Luminespib = compound: Cc1ccc(F)c(NC(=O)Nc2ccc(-c3cccc4[nH]nc(N)c34)cc2)c1 [Linifanib] + CCNC(=O)c1noc(-c2cc(C(C)C)c(O)cc2O)c1-c1ccc(CN2CCOCC2)cc1 [Luminespib] (partner 0.01 µM)
# Outline: (§1)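 Relative viability equals treated-well nuclei counts divided by vehicle-well nuclei counts. Counts came from 4× images of lung cancer cell lines grown in 1536-well plates for 5 days after pin-tool dosing on the day after seeding. Dosing used one drug alone or a fixed anchor-drug dose plus five library-drug doses (not always all listed) in √10 steps, and values are medians of duplicate plates.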
# Linifanib + Navitoclax = compound: Cc1ccc(F)c(NC(=O)Nc2ccc(-c3cccc4[nH]nc(N)c34)cc2)c1 [Linifanib] + CC1(C)CCC(c2ccc(Cl)cc2)=C(CN2CCN(c3ccc(C(=O)NS(=O)(=O)c4ccc(N[C@H](CCN5CCOCC5)CSc5ccccc5)c(S(=O)(=O)C(F)(F)F)c4)cc3)CC2)C1 [Navitoclax] (partner 0.5 µM)
# Outline: as §1
# Linifanib + Alpelisib = compound: Cc1ccc(F)c(NC(=O)Nc2ccc(-c3cccc4[nH]nc(N)c34)cc2)c1 [Linifanib] + Cc1nc(NC(=O)N2CCC[C@H]2C(N)=O)sc1-c1ccnc(C(C)(C)C(F)(F)F)c1 [Alpelisib] (partner 2 µM)
# Outline: as §1
Cell Line,relative viability (Linifanib + Luminespib; first compound 0.03162 µM),relative viability (Linifanib + Luminespib; first compound 0.1 µM),relative viability (Linifanib + Luminespib; first compound 0.3162 µM),relative viability (Linifanib + Navitoclax; first compound 0.03162 µM),relative viability (Linifanib + Navitoclax; first compound 0.1 µM),relative viability (Linifanib + Navitoclax; first compound 0.3162 µM),relative viability (Linifanib + Alpelisib; first compound 0.03162 µM),relative viability (Linifanib + Alpelisib; first compound 0.1 µM),relative viability (Linifanib + Alpelisib; first compound 0.3162 µM)
PC-14,0.201,0.197,0.147,0.975,0.91,0.947,0.907,0.958,0.88
NCI-H647,0.149,0.325,0.114,1.23,1.03,1.01,1.07,1.21,0.963
LCLC-103H,0.971,0.973,0.889,–,–,–,0.838,0.927,0.894
NCI-H2228,0.15,0.155,0.17,0.994,1.01,0.8,0.821,0.827,0.843
NCI-H2085,0.4,0.481,0.384,1.04,1.12,1.11,0.923,1.13,0.916
H3255,0.85,0.94,0.976,0.557,0.642,0.562,0.752,0.787,0.706
LK-2,0.189,0.201,0.232,0.791,1.03,0.704,0.895,1.06,1.01
NCI-H441,0.371,0.297,0.252,0.705,0.637,0.591,0.649,1.05,0.735
SW 900,0.168,0.172,0.153,–,–,–,–,–,–
PC-3 [JPC-3],0.744,0.731,0.579,0.878,0.826,0.77,1.05,1.02,1.04
NCI-H2342,0.736,0.766,0.613,–,–,–,–,–,–
NCI-H1437,1.12,1.17,1.04,1.1,1.12,1.07,1.02,0.999,0.868
HCC-827,0.549,0.669,0.622,1.02,1.02,1,0.986,1.06,0.922
HCC-44,0.903,0.954,1.05,1.05,0.956,0.942,0.82,0.824,0.793
NCI-H2126,0.896,0.967,0.91,0.836,0.838,0.816,0.791,0.793,0.765
NCI-H596,1.02,1.1,1.17,1.12,1.04,0.882,0.544,0.517,0.431
NCI-H460,0.0304,0.0311,0.0301,1.1,1.45,1,0.432,0.602,0.469
NCI-H1792,0.331,0.353,0.464,0.692,0.621,0.639,0.631,0.738,0.776
RERF-LC-KJ,1.3,1.28,1.25,1.12,1.02,0.994,0.888,1.04,0.75
COR-L23,0.673,0.892,0.705,1.05,1.04,0.857,0.81,0.957,0.732
UMC-11,0.958,1.1,1.08,0.304,0.41,0.366,0.945,1.15,0.99
SW 1573,0.162,0.26,0.253,1.03,1.28,0.897,0.609,0.914,0.657
NCI-H1395,0.684,0.824,0.622,1.19,1.17,1.21,1.2,1.02,1.08
BEN,0.276,0.49,0.233,0.069,0.203,0.0675,0.963,1.11,0.992

Cell Line,relative viability (Linifanib + Luminespib; first compound 0.03162 µM),relative viability (Linifanib + Luminespib; first compound 0.1 µM),relative viability (Linifanib + Luminespib; first compound 0.3162 µM),relative viability (Linifanib + Navitoclax; first compound 0.03162 µM),relative viability (Linifanib + Navitoclax; first compound 0.1 µM),relative viability (Linifanib + Navitoclax; first compound 0.3162 µM),relative viability (Linifanib + Alpelisib; first compound 0.03162 µM),relative viability (Linifanib + Alpelisib; first compound 0.1 µM),relative viability (Linifanib + Alpelisib; first compound 0.3162 µM)
SK-MES-1,0.79,0.769,0.639,1.18,1.25,1.04,0.883,0.852,0.885
NCI-H1755,0.586,0.599,0.447,0.931,1.06,0.949,0.966,0.963,0.833
NCI-H1793,0.169,0.173,0.199,0.553,0.429,0.444,0.664,0.763,0.681
HCC-15,0.387,0.278,0.3,0.651,0.776,0.682,0.881,0.941,0.887
ChaGo-K-1,0.636,0.777,0.563,0.991,1.17,0.978,–,–,–
LXF-289,0.766,0.866,0.674,0.936,0.953,0.883,1.11,1.04,1.02
NCI-H661,0.922,0.907,0.926,–,–,–,0.647,0.787,0.515
NCI-H358,0.366,0.374,0.416,–,–,–,0.897,0.879,0.795
HOP-62,0.927,0.964,0.866,1,1.07,0.859,1.38,1.03,1.07
NCI-H1993,0.864,0.933,1.03,0.806,1.01,0.971,0.628,0.711,0.646
A-427,0.912,1.09,0.814,1.07,0.986,0.998,1.13,1.16,1.09
201T,1.1,1.06,1.03,1.2,1.23,1.21,1,1.06,0.978
SK-LU-1,0.195,0.181,0.227,0.783,0.893,0.791,0.926,0.918,1.05
NCI-H1651,0.945,0.748,0.797,0.91,1.24,0.999,0.883,0.838,0.996
LC-2-ad,0.968,0.958,1.05,0.48,0.553,0.429,0.749,0.912,0.752
NCI-H1734,0.223,0.216,0.174,0.851,0.808,0.789,0.748,0.773,0.679
COR-L 105,0.807,0.889,0.556,0.808,0.938,0.796,1,1.02,1.01
EKVX,0.838,0.962,0.854,0.973,1.15,0.868,0.9,1.14,0.831
NCI-H838,0.373,0.285,0.267,1.19,1.15,1.16,0.903,1.07,0.932
LOU-NH91,0.394,0.324,0.319,0.656,0.753,0.594,0.686,0.771,0.704
NCI-H2347,0.479,0.408,0.348,0.826,1.01,0.733,1.07,1.05,1.08
NCI-H1915,0.826,0.804,0.679,0.78,0.821,0.788,1.08,1.08,1.06
NCI-H3122,0.0911,0.0897,0.0958,1.02,1.04,1.01,0.761,0.783,0.786
NCI-H2009,1.03,1.05,0.965,1.13,1.14,1.13,1.16,1.19,1.08

Cell Line,relative viability (Linifanib + Luminespib; first compound 0.03162 µM),relative viability (Linifanib + Luminespib; first compound 0.1 µM),relative viability (Linifanib + Luminespib; first compound 0.3162 µM),relative viability (Linifanib + Navitoclax; first compound 0.03162 µM),relative viability (Linifanib + Navitoclax; first compound 0.1 µM),relative viability (Linifanib + Navitoclax; first compound 0.3162 µM),relative viability (Linifanib + Alpelisib; first compound 0.03162 µM),relative viability (Linifanib + Alpelisib; first compound 0.1 µM),relative viability (Linifanib + Alpelisib; first compound 0.3162 µM)
NCI-H1650,0.2,0.188,0.205,0.998,1.35,1.21,–,–,–
NCI-H2023,0.7,0.925,0.757,0.929,1.07,0.981,0.585,0.598,0.564
NCI-H2087,0.175,0.193,0.171,0.959,1.08,0.95,1.28,1.17,1.03
NCI-H322M,0.88,0.863,0.882,1.25,1.14,1.17,0.81,0.823,0.754
EPLC-272H,0.405,0.392,0.419,1.09,1.09,0.962,0.75,1.02,0.909
HARA,1.12,0.651,0.707,1.16,1.12,1.05,0.864,0.983,0.756
EMC-BAC-2,1.2,1.19,1.14,1.19,1.17,1.15,0.778,0.792,0.683
LCLC-97TM1,0.721,0.766,0.595,0.436,0.417,0.321,0.284,0.292,0.246
NCI-H1944,0.67,0.727,0.733,1.05,1.05,0.98,0.846,0.848,0.695
NCI-H2405,0.626,0.933,0.741,0.889,0.88,0.754,0.801,0.847,0.701
NCI-H1975,0.202,0.139,0.251,1.05,1.22,1.08,0.631,0.715,0.65
HCC-78,–,–,–,0.791,0.74,0.792,0.339,0.357,0.363
CAL-12T,0.438,0.751,0.364,1.18,1.21,1.04,1.27,1.3,1.28
NCI-H23,0.238,0.217,0.225,0.98,0.99,0.61,0.563,0.807,0.76
NCI-H2170,0.686,0.844,0.741,0.557,0.616,0.448,0.787,0.875,0.776
NCI-H1666,1.03,1.04,0.999,0.982,0.948,1.17,0.951,1.15,1.1
NCI-H650,0.816,0.611,0.71,–,–,–,1.09,1.04,1.14
NCI-H520,0.171,0.204,0.226,1.02,1.1,1.05,0.789,0.801,0.794
HCC-366,–,–,–,1.12,1.11,0.874,0.533,0.664,0.357
ABC-1,0.497,0.558,0.783,–,–,–,0.928,1.05,0.927
NCI-H727,0.312,0.292,0.358,0.407,0.402,0.415,0.613,0.6,0.483
NCI-H1355,0.777,0.672,0.648,0.891,0.953,0.963,0.81,0.823,0.794
LU99A,0.205,0.246,0.268,0.747,0.775,0.743,0.574,0.618,0.539
